Laboratory results reported in patent publication US8101410B2 (Entelechon GmbH, priority 2005, dated 2012).
Read-outs that look alike come from different tables or passages of the source.

Columns and labels:
[1] = test system: Solanum tuberosum L.; conditions: Haldrup et al. (1998); cited from earlier work
[2] = test system: Lycopersicon esculentum L.; conditions: Haldrup et al. (1998); cited from earlier work
[3] = test system: Nicotiana tabacum L.; conditions: Haldrup et al. (1998); cited from earlier work
[4] = test system: plant cells; conditions: Table 2, range over plant species, literature; cited from earlier work
[5] = test system: wild type/non-transgenic lines of Brassica juncea cv. Varuna; assay: Seed germination in the presence of kanamycin; type: in vivo
[6] = test system: Brassica juncea wild type shoots
[7] = test system: Brassica juncea L.; conditions: Present Investigations
[8] = test system: shoots of codAps transgenic lines A, B, D and E of Brassica juncea cv. Varuna
Excerpt: The codA gene was isolated in the inventors' laboratory from local strain of Arthrobacter globiformis (GenBank accession number AY589052, hereafter referred as codAps gene) and cloned into pPZP200lox(npt 11) vector (obtained from Dr. Deepak Pental, Department of Genetics, South Campus, University of Delhi, New Delhi, India). The resultant vector named as pSG was electroporated into Agrobacterium tumefaciens strain GV3101. Hypocotyl and cotyledonary petiolar explants were excised from 6 d old sterile seedlings were transformed using Agrobacterium tumefaciens strain GV3101/pSG/codAps.

[9] = test system: Brassica juncea cv. Varuna wild type seeds/seedlings
Experimental: (§1) T2 seeds of various independent homozygous transgenic lines of Brassica juncea cv. […] Homozygous transgenic genotypes were identified based on 100 percent germination of T2 seed of various independent transformed lines in the presence of 50 mg/l kanamycin.

[10] = test system: plant cells; conditions: Table 2, choline, present investigations
[11] = test system: homozygous codAps transgenic lines A, B, D and E of Brassica juncea cv. Varuna seeds/seedlings; conditions: for seedling growth: transgenic lines
Experimental: as §1
For these studies seeds from four homozygous transgenic lines (lines A, B, D and E) of T2 generation were used. The homozygous genotypes were identified based on 100 percent germination of seed in the presence of 50 mg/l kanamycin (i.e. otherwise lethal to wild type/non-transgenic lines).

[12] = test system: Nicotiana tabacum cv. Petit Havana SR1 shoots
Experimental: In one set of experiments uniformly looking ˜1 cm long shoots were taken while in a second set of experiments a bunch of 6-8 shoots were used.
For this purpose, shoots of Nicotiana tabacum cv. Petit Havana SR1 were obtained by multiplying the shoots regenerated from the leaf segments on MS medium supplemented with 2 mg/l BAP.

[13] = test system: Nicotiana tabacum L.; conditions: Present Investigations
[14] = test system: Brassica juncea cv. Varuna explants (wild type)
[15] = 60 mM choline, transgenic lines
[16] = lower concentrations of choline, shoot induction medium

Structure (SMILES): O=C[C@H](O)[C@@H](O)[C@H](O)CO [Xylose]
- Selection concentration [1]: 3750 mg/L
- Selection concentration [2]: 15000 mg/L
- Selection concentration [3]: 20000 mg/L
- Selection concentration [4]: 3750 to 20000 mg/L

Structure (SMILES): NC[C@H]1O[C@H](O[C@H]2[C@H](O)[C@@H](O[C@H]3O[C@H](CO)[C@@H](O)[C@H](N)[C@H]3O)[C@H](N)C[C@@H]2N)[C@H](O)[C@@H](O)[C@@H]1O [Kanamycin]
- kanamycin concentration lethal to wild type/non-transgenic lines [5]: 50 mg/L

Structure (SMILES): CP(=O)(O)CC[C@H](N)C(=O)O [Phosphinothricin]
- Selection concentration [4]: 5 to 10 mg/L

Structure (SMILES): C[N+](C)(C)CCO.[Cl-] [Choline, choline chloride]
- growth of shoots ([6]; MS medium with choline chloride 5-60 mM, wild type): significantly curtailed the growth of shoots
- time to death of shoots after inoculation ([6]; choline 20 mM and above, wild type shoots): ≤ 15 days
- choline concentration giving loss in green pigmentation followed by browning/senescence leading to death ([6]; wild type shoots, MS medium): ≥ 20 mM
- Selection concentration [7]: 5584 mg/L
- growth of the shoots ([8]; 40 mM choline, transgenic lines): no significant alteration in the growth
- green pigmentation [8, 15]: no loss in green pigmentation
- growth of shoots [8, 15]: suppression in the growth
- choline concentration that shoots were able to withstand ([8]; transgenic lines A, B, D, E, MS medium): ≤ 60 mM
- fresh weight of seedlings, lower than those raised in absence of choline ([9]; 40 mM choline, MGM, 30 d): 90%
- seed germination and early seedling growth ([9]; MGM (half strength MS without sucrose/organics) with choline): significantly curtailed
- percent seed germination as well as seedling growth ([9]; MS medium supplemented with choline (20, 40 mM)): suppressed significantly
- seed germination ([9]; MS medium, 40 mM choline): almost no/little seed germination
- Selection concentration [10]: 5584 mg/L
- fresh weight of seedlings, lower than respective controls ([11]; four independent transgenic lines, 40 mM choline, MGM, 30 d): 25-30%
- seed germination and seedling growth ([11]; transgenic lines A, B, D, E, MGM, 40 mM choline vs 20 mM): delay in seed germination as well as reduction in seedling growth
- seed germination ([11]; transgenic lines A, B, D, E, MS medium, all concentrations of choline tested (20, 40 mM)): 100%
- seedling growth ([11]; MS medium, 20 mM choline and below): comparable to those grown in the absence of choline
- seedling growth ([11]; MS medium, 40 mM choline): significant reduction in seedling growth
- time to loss of green pigmentation followed by senescence/death after inoculation ([12]; 40 mM choline): ≤ 7 days
- shoot growth ([12]; MS medium with choline chloride 20 and 40 mM): significantly curtailed shoot growth
- Selection concentration [13]: 5584 mg/L
- cotyledonary explants that lost green pigmentation completely ([14]; 40 mM choline): ~100%
- cultures exhibiting callogenesis ([14]; 40 mM choline): 100%
- shoot induction (caulogenesis) from hypocotyl and cotyledonary petiolar explants ([14]; choline chloride 10, 20, 30, 40 mM in shoot induction medium (MS + BAP, NAA, AgNO3), 20 d): suppressed shoot induction
- expansion of the cotyledonary leaves of cotyledonary petiolar explants ([14]; choline in shoot induction medium, effect increases with concentration): significantly curtailed the expansion of the cotyledonary leaves
- callogenesis i.e. callus induction [14, 16]: did not cause any significant alteration in callogenesis
- rhizogenesis [14, 16]: promoted rhizogenesis

Structure (SMILES): [Cl-].[K+] [potassium chloride, reference compound]
- shoot induction ([14]; potassium chloride 10, 20, 30, 40 mM in place of choline chloride): no significant alteration
- expansion of cotyledons and/or green pigmentation ([14]; potassium chloride at highest concentration (40 mM)): did not cause any suppression in the expansion of cotyledons and/or alteration in green pigmentation
